B1: epoxide hydrolase: 34 kDa monomeric enzyme (approximately 294 amino acids) from Agrobacterium radiobacter AD1, expressed in E.coli (protein)
chain: MTIRRPEDFKHYEVQLPDVKIHYVREGAGPTLLLLHGWPGFWWEWSKVIGPLAEHYDVIVPDLRGFGDSEKPDLNDLSKYSLDKAADDQAALLDALGIEKAYVVGHDFAAIVLHKFIRKYSDRVIKAAIFDPIQPDFGPVYFGLGHVHESWYSQFHQLDMAVEVVGSSREVCKKYFKHFFDHWSYRDELLTEEELEVHVDNCMKPDNIHGGFNYYRANIRPDAALWTDLDHTMSDLPVTMIWGLGDTCVPYAPLIEFVPKYYSNYTMETIEDCGHFLMVEKPEIAIDRIKTAFR

How the values were obtained:
epoxide hydrolase = epoxide hydrolase (Agrobacterium tumefaciens, UniProt O31243); assay: Kinetics of epoxide hydrolase with epichlorohydrin as substrate; type: biochemical, Agrobacterium radiobacter
Text: It is now possible to study the kinetics of epoxide hydrolase by performing rapid quench and stopped flow experiments. Stopped flow experiments are possible since substrate is able to quench the fluorescence signal of some of the tryptophans present in epoxide hydrolase. Also, it is possible to mutate (replace) the amino acids (e.g. tryptophans) that are involved in substrate binding. Either with site-directed mutagenesis or random mutagenesis, it is possible to modify the substrate specificity and the stereoselectivity of epoxide hydrolase. The epoxide hydrolase has the following characteristics.
The asymmetric hydrolysis of the substrate is generally conducted in aqueous solution. The pH of the solution is maintained by means of a buffer. Maximum enzyme activity is obtained at pH 9 but a range of pH 5 to 11 can be employed. The composition of the buffer can for example be Tris/H2SO4, potassium phosphate or glycine/NaOH. The maximum enzyme activity is obtained at a temperature of 50° C., but the reaction can be conducted at a temperature ranging from 5° C. to 65° C. The substrate concentration used to measure the enzyme activity is from 1 to 20 mM. In case of poorly soluble substrates, the water solubility can be increased by adding a miscible organic cosolvent such a DMSO. Also other organic solvents can be used. […]

[1] = Storage stability of recombinant epoxide hydrolase; type: physicochemical; conditions: 4° C., expressed in E.coli

Molecule | Km (epoxide hydrolase) [µM] | Vmax (epoxide hydrolase) [μmol min^−1.mg.protein^−1] | Stability on storage [1]
ClCC1CO1 (stereo not drawn) [epichlorohydrin] | < 30 | 25 | 
B1 |  |  | stable at 4 °C for at least half a year

Source: patent US6387668B1, “Enantioselective epoxide hydrolases and genes encoding these” (Rijksuniversiteit Groningen, priority 1997, dated 2002)
